Source: publication PMC12022909, “A Multicomponent Reaction-Based Platform Opens New Avenues in Aryl Hydrocarbon Receptor Modulation” (ACS Central Science, 2025)

Biological target: T1, AhR (Homo sapiens, UniProt P35869)
T1 construct: Degradation of endogenous AhR was further confirmed via Western blotting and global proteomics measurements in cells treated with 12b; host or cells: MCF7
T1 sequence (P35869 11-848): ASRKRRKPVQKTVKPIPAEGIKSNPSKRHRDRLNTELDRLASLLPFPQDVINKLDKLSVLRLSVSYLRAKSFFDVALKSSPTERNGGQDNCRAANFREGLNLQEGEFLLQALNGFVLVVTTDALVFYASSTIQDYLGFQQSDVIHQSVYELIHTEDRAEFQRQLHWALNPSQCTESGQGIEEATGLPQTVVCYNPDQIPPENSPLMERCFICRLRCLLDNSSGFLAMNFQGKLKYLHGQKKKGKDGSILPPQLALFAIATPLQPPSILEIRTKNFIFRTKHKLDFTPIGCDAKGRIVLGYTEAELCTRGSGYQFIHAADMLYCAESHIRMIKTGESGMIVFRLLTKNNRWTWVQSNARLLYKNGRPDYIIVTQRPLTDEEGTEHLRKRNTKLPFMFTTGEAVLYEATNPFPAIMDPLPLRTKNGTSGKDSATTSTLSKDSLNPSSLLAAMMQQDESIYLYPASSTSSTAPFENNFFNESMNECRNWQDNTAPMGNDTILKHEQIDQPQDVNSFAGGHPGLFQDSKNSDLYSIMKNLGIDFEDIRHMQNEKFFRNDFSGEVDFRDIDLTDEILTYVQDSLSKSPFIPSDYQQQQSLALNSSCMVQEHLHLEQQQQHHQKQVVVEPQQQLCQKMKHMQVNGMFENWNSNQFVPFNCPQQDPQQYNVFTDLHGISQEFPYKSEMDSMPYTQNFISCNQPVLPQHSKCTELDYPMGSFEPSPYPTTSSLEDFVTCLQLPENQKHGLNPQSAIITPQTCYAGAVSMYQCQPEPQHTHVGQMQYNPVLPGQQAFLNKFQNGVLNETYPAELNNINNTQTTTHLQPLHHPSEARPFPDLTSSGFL
Assay: Western blot of AhR in MCF7 cells
Type: cell-based
Details: 10 µM, 5 h
Procedure: Figure S30. Agonists induce degradation of AhR.
12b, 12c, and 12d at a concentration of 10 µM for 5h. The numbers on the Blot indicate the signal intensities of the bands relative to the Tubulin bands, normalized to DMSO treatment as quantified with Empiria Studio. […]
Cell culture and treatment […]
MCF7 cells were purchased from ATCC and grown in DMEM with 10% FCS and 1% penicillin/ streptomycin. […]
All cells were cultivated at 37 °C in a humidified atmosphere containing 5% CO 2.
Tapinarof (MedChemExpress, Monmouth Junction, NJ), benzo[a]pyrene (Sigma-Aldrich, Taufkirchen, Germany), TCDD (Amchro, Hattersheim am Main, Germany) and all compounds synthesized in this study were dissolved in dimethyl sulfoxide (DMSO; Roth). […]
Quantitative real-time PCR […]
• CYP1A1: […] (forward (5'>3')); […] (reverse (5'>3')).
• CYP1B1: […] (forward (5'>3')); […] (reverse (5'>3')).
• CCL26: […] (forward (5'>3')); […] (reverse (5'>3')).
• IL-19: […] (forward (5'>3')); […] (reverse (5'>3')).
• CXCL1: […] (forward (5'>3')); […] (reverse (5'>3')).
• β-actin: […] (forward (5'>3')); […] (reverse (5'>3')). […]
The assay was carried out as described earlier. Luciferase activity was normalized to protein content.
SDS-PAGE/Western blot analysis
Cells were lysed in RIPA buffer on ice and subsequently centrifuged for 15 min at 4 °C at maximum speed. Protein samples were separated by 10% and 12% SDS -polyacrylamide gel electrophoresis and blotted onto PVDF (GE Healthcare, Freiburg, Germany) or Nitrocellulose (BioRad #17 04158) membranes. Blots were blocked with 5% skim milk or bovine serum albumin in TBS -Tween-20 (0.1%) for or Intercept® (TBS) Blocking Buffer (LI -COR Biosciences) 1 h at room temperature and subsequently incubated overnight at 4 °C with primary antibodies. Blots were washed and then incubated for 1 h with a 1:5000 dilution of HRP -conjugated secondary antibodies in 5% bovine serum albumin in TBS -Tween-20 (0.1%) or anti-Mouse (Licor, IRDye® 680RD Goat anti -Mouse IgG, 1:10k dilution) or anti-Rabbit secondary antibody (Licor, IRDye® Goat anti -Rabbit IgG, 1:10k dilution) at room temperature. Bands were visualized using WesternBright ECL HRP substrate (Advansta, San Jose, CA) and a C -DiGit Western Blot Scanner (LI -COR Biotechnology, Lincoln, NE) or a Licor Odyssey CLx imager. Primary antibodies used in this study are as follows. AhR (Cat.No. 83200; Cell Signaling Technology, Leiden, The Netherlands). AIP (Cat.No. sc-59730; Santa Cruz Biotechnology, Dallas, TX). Cul4B (Cat.No. abx004735; Abbexa, Houston, TX). GAPDH (Cat.No. 2118; Cell Signaling Technology). Vinculin (Cat.No. 13901, Cell Signaling Technology). α - Tubulin (Abcam, ab7291, 1:10k dilution).
HaCaT-EV and HaCaT-shAhR cells were treated with either vehicle (DMSO) or 10 µM 12d for 0.5 h and 1 h. […]

Which AhR receptor proteolysis does the source give for `Cc1[nH]c2ccccc2c1-c1c2[nH]c3ccccc3c2cc2[nH]c3ccccc3c12` [5e] here?
The AhR receptor proteolysis was “induced receptor proteolysis”.
